Measurements reported in US6387909B1, “Thienopyranecarboxamide derivatives” (Recordati S.A. Chemical and Pharmaceutical Company, priority 1999, dated 2002).

What was measured:
[1] = biological target: T1, recombinant α1b-adrenoceptor (Homo sapiens, UniProt P35368); test: Radioligand binding ([3H]prazosin) to cloned α1b adrenoceptor; settings: read-out: Affinity (Ki) α1b
T1 construct: expressed in transfected cells
T1 sequence (P35368 1-520): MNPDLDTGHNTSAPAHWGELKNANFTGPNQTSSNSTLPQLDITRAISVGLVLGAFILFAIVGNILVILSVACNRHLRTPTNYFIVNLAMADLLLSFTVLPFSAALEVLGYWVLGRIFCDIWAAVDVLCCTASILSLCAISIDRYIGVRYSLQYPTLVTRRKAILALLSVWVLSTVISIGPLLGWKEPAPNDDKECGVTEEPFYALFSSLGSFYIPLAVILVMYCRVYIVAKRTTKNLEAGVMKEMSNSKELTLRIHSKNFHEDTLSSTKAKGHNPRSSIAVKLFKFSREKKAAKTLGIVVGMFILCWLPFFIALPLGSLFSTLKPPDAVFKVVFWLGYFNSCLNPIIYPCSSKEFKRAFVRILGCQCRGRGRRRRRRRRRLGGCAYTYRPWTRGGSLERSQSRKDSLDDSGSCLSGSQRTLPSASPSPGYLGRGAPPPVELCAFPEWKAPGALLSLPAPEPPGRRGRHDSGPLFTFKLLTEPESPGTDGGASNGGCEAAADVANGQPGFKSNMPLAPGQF
Experimental: Determination of affinity for cloned subtypes of the α1-adrenoceptor was performed in membranes from cells transfected by electroporation with DNA expressing the genes encoding each α1-adrenoceptor subtype.
Non-specific binding was determined in the presence of 10 μM phentolamine. Incubation was stopped by addition of ice-cold Tris buffer and rapid filtration through Schleicher & Schuell GF52 filters that had been pretreated with 0.2%-polyethyleneimine.
Data were expressed as mean of Ki.

α1L adrenoceptor = biological target: T2, α1L adrenoceptor (Oryctolagus cuniculus, UniProt O02824); test: Functional antagonism of noradrenaline-induced contractions of rabbit aorta pretreated with chloroethylclonidine; format: biochemical; settings: NA-induced contractions
T2 sequence (O02824 1-466): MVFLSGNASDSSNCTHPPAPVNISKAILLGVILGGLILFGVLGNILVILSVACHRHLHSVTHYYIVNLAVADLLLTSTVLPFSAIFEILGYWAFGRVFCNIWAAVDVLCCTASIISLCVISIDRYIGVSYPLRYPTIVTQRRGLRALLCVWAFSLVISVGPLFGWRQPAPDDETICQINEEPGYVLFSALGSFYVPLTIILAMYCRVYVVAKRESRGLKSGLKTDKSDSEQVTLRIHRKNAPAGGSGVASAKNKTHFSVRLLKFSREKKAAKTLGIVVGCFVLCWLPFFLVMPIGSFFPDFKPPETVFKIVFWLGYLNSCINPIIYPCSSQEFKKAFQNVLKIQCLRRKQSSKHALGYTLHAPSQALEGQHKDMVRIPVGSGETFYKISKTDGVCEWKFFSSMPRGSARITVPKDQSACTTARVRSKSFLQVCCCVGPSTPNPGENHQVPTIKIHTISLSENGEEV
Experimental: Adult male New Zealand rabbits were sacrificed by cervical dislocation. The aorta was removed, placed in Krebs-Henseleit buffer and dissected free of adhering tissue. […] Desmethylimipramine (0.1 μM) and corticosterone (1 μM) to block neuronal and extraneuronal uptake of NA, (±)-propranol (1 μM) to block β adrenoceptors and yohimbine (0.1 μM) to block α2 adrenoceptors were added to the buffer.
The preparations were equilibrated for 60 minutes and then primed every 30 minutes with 10 μM NA for three times. The aortic rings were then incubated with the alkylating agent chloroethylclonidine (50 μM) for 30 minutes and then washed extensively three times, over a 30 min period before constructing the NA-concentration/response curve. Following washing, tissue was re-equilibrated for 45 min. Test drug was added and after 30 minutes, a second cumulative-NA-concentration/response curve was constructed. Each antagonist concentration was tested using 2-3 aortic rings from different rabbits.
Dose ratios (i.e., the ratio between the concentrations of noradrenaline required to produce half-maximal response in the presence and in the absence of the test antagonist) were calculated at each concentration of the compounds. The logarithm of these dose ratio −1 was plotted against the logarithm of the compound concentrations (Schild plot) to evaluate the affinity constant Kb.
When only one or two concentrations of the test compounds were utilised, the apparent Kb value was calculated using the formula: Kb=[B]/(DOSE RATIO-1), where B is the antagonist concentration.

[2] = test system: prostatic urethral contractions induced by noradrenaline; test: Urethral contractions induced by noradrenaline injection in anaesthetized dogs after intravenous administration; format: in vivo; settings: dog, i.v.
Experimental: (§1) The experiments were performed according to the method of Imagawa et al. (J. Pharmacol. Methods, 22:103-111, 1989), with substantial modifications, as follows: adult male beagle dogs, weighing 8-10 kg, were anaesthetized with pentobarbital sodium (30 mg/kg i.v. and 2 mg/kg/h i.v.), intubated and spontaneously ventilated with room air. In order to monitor systemic blood pressure (BP), a polyethylene (PE) catheter was introduced into the aortic arch through the left femoral artery. A collateral of the left femoral vein was cannulated for infusion of anaesthetic, and the right femoral vein was cannulated for administration of compounds. For intraarterial (i.a.) injection of noradrenaline (NA), a PE catheter was introduced into the lower portion of the abdominal aorta via the right external iliac artery. Through such procedure, NA was selectively distributed to the lower urinary tract. A paramedian vertical suprapubic incision extending from the base of the pelvis to the mid-abdominal region was made and the bladder and the prostate were exposed. The bladder was manually emptied with a syringe. Prostatic urethral pressure was monitored with a Mikro-tip catheter (5F) introduced into the bladder via the external urethral meatus, and withdrawn until the pressure transducer was positioned in the prostatic region of the urethra. A ligature was secured between the neck of the bladder and urethra to isolate the response of the latter and to avoid any interaction with the bladder. Another ligature was put around the Mikro-tip catheter at the external meatus, to secure the catheter itself.
(§2) After a stabilizing period following the surgical procedure (30 minutes), in which arterial and prostatic urethral pressures were continuously monitored as basal values, i.a. administration of NA was made at intervals of 20 minutes.
(§3) The NA doses were chosen to produce an increase of at least 100% in urethral pressure. The test compounds were administered intravenously in a cumulative manner with intervals of 15-20 minutes between administrations. […]

diastolic blood pressure = test: Blood pressure in anaesthetized dogs after intravenous administration; format: in vivo; settings: dog, i.v.
Experimental: as §1, §2, §3

Ki [1]	pKb, functional affinity for the α1L adrenoceptor subtype (α1L adrenoceptor)	SMILES	UC ID50 NA (dose inhibiting by 50% the urethral contractions induced by noradrenaline) [2]	DBP ED25 (dose inducing a 25% decrease in diastolic blood pressure) (diastolic blood pressure)
4.34 nM	9.12	O=C(NCCCN1CCN(c2ccccc2OCC(F)(F)F)CC1)c1csc2c(=O)cc(-c3ccccc3)oc12 [Example 5, 7-Oxo-5-phenyl-N-{3-[4-[2-(2,2,2-trifluoroethoxy)phenyl]-1-piperazinyl]propyl}-7H-thieno[3,2-b]pyran-3-carboxamide]	0.0027 mg/kg	>1 mg/kg
7.52 nM	8.85	COc1ccccc1N1CCN(CCCNC(=O)c2csc3c(=O)cc(-c4ccccc4)oc23)CC1 [Example 2, N-{3-[4-(2-Methoxyphenyl)-1-piperazinyl]propyl}-7-oxo-5-phenyl-7H-thieno[3,2-b]pyran-3-carboxamide]	0.0018 mg/kg	0.0355 mg/kg
